# According to patent US9630977B2, “Cephalosporin derivatives and pharmaceutical compositions thereof” (Legochem Biosciences, Inc., priority 2011, dated 2017):
# Tested on: A. baumannii 49
# Assay: In vitro antibacterial activity test (broth microdilution)
# Assay type: cell-based
# Conditions: Acinetobacter baumannii, 49, A. baumannii 49
# Experimental: (§1) To evaluate antibacterial activity of each of the compounds of Examples 1 to 68, in vitro antibacterial activity test was performed.
# (§2) The in vitro antibacterial activity was evaluated by measuring MIC90 (ug/mL) of each of the compounds of Examples 1 to 68, which is defined as the lowest concentration of an antibiotic that will inhibit the visible growth of 90% of microorganisms after incubation as compared with a control group to which the antibiotic is not treated. MIC90 values were measured by the broth microdilution method developed by the Clinical and Laboratory Standards Institute (CLSI) (see CLSI M7-A5, Methods for Dilution Antimicrobial Susceptibility Test for Bacteria that Grow Aerobically-Fifth Edition (2000): CLSI, Villanova, Pa.).
# (§3) In vitro antibacterial activity was measured with respect to the following 19 clinical isolates: M. catarrhalis; P. aeruginosa (5 strains); K. pneumoniae (6 strains); A. baumannii (3 strains); E. coli (2 strains); A. calcoaceticus; and E. cloacae.
# (§4) Test compounds each (the cephalosporin derivative compounds prepared in Examples 1 to 68) were dissolved in DMSO at the concentration of 10,240 ug/mL, were diluted by two fold with DMSO, and then were diluted by twenty fold with sterilized distilled water. The final concentration in the antibacterial activity test was in the range of […] to 128 ug/mL, and the final concentration of DMSO used as an adjuvant was 2.5% (V/V).
row,Compound,MIC90 [µg/mL]
1,CC(C)(O/N=C(\C(=O)N[C@@H]1C(=O)N2C(C(=O)[O-])=C(C[n+]3cnc(NCCCCN)c(NCCCCN)c3)CSC12)c1csc(N)n1)C(=O)O (some centres unmarked) [Compound 41],32
2,CC(C)(O/N=C(\C(=O)N[C@@H]1C(=O)N2C(C(=O)[O-])=C(/C=C/C[n+]3cnc(N)c(NC(=O)CCN)c3N)CSC12)c1csc(N)n1)C(=O)O (some centres unmarked) [Compound 66],> 128

# Tested on: A. calcoaceticus ATCC15473
# Assay: as above
# Assay type: cell-based
# Conditions: Acinetobacter calcoaceticus, ATCC15473, A. calcoaceticus ATCC15473
# Experimental: as §1, §2, §3, §4
row,Compound,MIC90 [µg/mL]
1,CC(C)(O/N=C(\C(=O)N[C@@H]1C(=O)N2C(C(=O)[O-])=C(C[n+]3cnc(NCCCCN)c(NCCCCN)c3)CSC12)c1csc(N)n1)C(=O)O (some centres unmarked) [Compound 41],1
2,CC(C)(O/N=C(\C(=O)N[C@@H]1C(=O)N2C(C(=O)[O-])=C(/C=C/C[n+]3cnc(N)c(NC(=O)CCN)c3N)CSC12)c1csc(N)n1)C(=O)O (some centres unmarked) [Compound 66],2

# Tested on: K. pneumoniae 2011E
# Assay: as above
# Assay type: cell-based
# Conditions: Klebsiella pneumoniae, 2011E
# Experimental: as §1, §2, §3, §4
row,Compound,MIC90 [µg/mL]
1,CC(C)(O/N=C(\C(=O)N[C@@H]1C(=O)N2C(C(=O)[O-])=C(C[n+]3cnc(NCCCCN)c(NCCCCN)c3)CSC12)c1csc(N)n1)C(=O)O (some centres unmarked) [Compound 41],4
2,CC(C)(O/N=C(\C(=O)N[C@@H]1C(=O)N2C(C(=O)[O-])=C(/C=C/C[n+]3cnc(N)c(NC(=O)CCN)c3N)CSC12)c1csc(N)n1)C(=O)O (some centres unmarked) [Compound 66],0.5

# Tested on: K. pneumoniae β11
# Assay: as above
# Assay type: cell-based
# Conditions: Klebsiella pneumoniae
# Experimental: as §1, §2, §3, §4
row,Compound,MIC90 [µg/mL]
1,CC(C)(O/N=C(\C(=O)N[C@@H]1C(=O)N2C(C(=O)[O-])=C(C[n+]3cnc(NCCCCN)c(NCCCCN)c3)CSC12)c1csc(N)n1)C(=O)O (some centres unmarked) [Compound 41],8
2,CC(C)(O/N=C(\C(=O)N[C@@H]1C(=O)N2C(C(=O)[O-])=C(/C=C/C[n+]3cnc(N)c(NC(=O)CCN)c3N)CSC12)c1csc(N)n1)C(=O)O (some centres unmarked) [Compound 66],16

# Tested on: P. aeruginosa 43
# Assay: as above
# Assay type: cell-based
# Conditions: Pseudomonas aeruginosa, 43
# Experimental: as §1, §2, §3, §4
row,Compound,MIC90 [µg/mL]
1,CC(C)(O/N=C(\C(=O)N[C@@H]1C(=O)N2C(C(=O)[O-])=C(C[n+]3cnc(NCCCCN)c(NCCCCN)c3)CSC12)c1csc(N)n1)C(=O)O (some centres unmarked) [Compound 41],128
2,CC(C)(O/N=C(\C(=O)N[C@@H]1C(=O)N2C(C(=O)[O-])=C(/C=C/C[n+]3cnc(N)c(NC(=O)CCN)c3N)CSC12)c1csc(N)n1)C(=O)O (some centres unmarked) [Compound 66],> 128

# Tested on: E. cloacae β19
# Assay: as above
# Assay type: cell-based
# Conditions: Enterobacter cloacae
# Experimental: as §1, §2, §3, §4
row,Compound,MIC90 [µg/mL]
1,CC(C)(O/N=C(\C(=O)N[C@@H]1C(=O)N2C(C(=O)[O-])=C(C[n+]3cnc(NCCCCN)c(NCCCCN)c3)CSC12)c1csc(N)n1)C(=O)O (some centres unmarked) [Compound 41],4
2,CC(C)(O/N=C(\C(=O)N[C@@H]1C(=O)N2C(C(=O)[O-])=C(/C=C/C[n+]3cnc(N)c(NC(=O)CCN)c3N)CSC12)c1csc(N)n1)C(=O)O (some centres unmarked) [Compound 66],0.25

# Tested on: P. aeruginosa 37
# Assay: as above
# Assay type: cell-based
# Conditions: Pseudomonas aeruginosa, 37, P. aeruginosa 37
# Experimental: as §1, §2, §3, §4
row,Compound,MIC90 [µg/mL]
1,CC(C)(O/N=C(\C(=O)N[C@@H]1C(=O)N2C(C(=O)[O-])=C(C[n+]3cnc(NCCCCN)c(NCCCCN)c3)CSC12)c1csc(N)n1)C(=O)O (some centres unmarked) [Compound 41],8
2,CC(C)(O/N=C(\C(=O)N[C@@H]1C(=O)N2C(C(=O)[O-])=C(/C=C/C[n+]3cnc(N)c(NC(=O)CCN)c3N)CSC12)c1csc(N)n1)C(=O)O (some centres unmarked) [Compound 66],16

# Tested on: E. coli AG100
# Assay: as above
# Assay type: cell-based
# Conditions: Escherichia coli, AG100
# Experimental: as §1, §2, §3, §4
row,Compound,MIC90 [µg/mL]
1,CC(C)(O/N=C(\C(=O)N[C@@H]1C(=O)N2C(C(=O)[O-])=C(C[n+]3cnc(NCCCCN)c(NCCCCN)c3)CSC12)c1csc(N)n1)C(=O)O (some centres unmarked) [Compound 41],1
2,CC(C)(O/N=C(\C(=O)N[C@@H]1C(=O)N2C(C(=O)[O-])=C(/C=C/C[n+]3cnc(N)c(NC(=O)CCN)c3N)CSC12)c1csc(N)n1)C(=O)O (some centres unmarked) [Compound 66],0.25

# Tested on: P. aeruginosa 40
# Assay: as above
# Assay type: cell-based
# Conditions: Pseudomonas aeruginosa, 40
# Experimental: as §1, §2, §3, §4
row,Compound,MIC90 [µg/mL]
1,CC(C)(O/N=C(\C(=O)N[C@@H]1C(=O)N2C(C(=O)[O-])=C(C[n+]3cnc(NCCCCN)c(NCCCCN)c3)CSC12)c1csc(N)n1)C(=O)O (some centres unmarked) [Compound 41],4
2,CC(C)(O/N=C(\C(=O)N[C@@H]1C(=O)N2C(C(=O)[O-])=C(/C=C/C[n+]3cnc(N)c(NC(=O)CCN)c3N)CSC12)c1csc(N)n1)C(=O)O (some centres unmarked) [Compound 66],8

# Tested on: K. pneumoniae β9
# Assay: as above
# Assay type: cell-based
# Conditions: Klebsiella pneumoniae
# Experimental: as §1, §2, §3, §4
row,Compound,MIC90 [µg/mL]
1,CC(C)(O/N=C(\C(=O)N[C@@H]1C(=O)N2C(C(=O)[O-])=C(C[n+]3cnc(NCCCCN)c(NCCCCN)c3)CSC12)c1csc(N)n1)C(=O)O (some centres unmarked) [Compound 41],2
2,CC(C)(O/N=C(\C(=O)N[C@@H]1C(=O)N2C(C(=O)[O-])=C(/C=C/C[n+]3cnc(N)c(NC(=O)CCN)c3N)CSC12)c1csc(N)n1)C(=O)O (some centres unmarked) [Compound 66],0.5

# Tested on: A. baumannii 52
# Assay: as above
# Assay type: cell-based
# Conditions: Acinetobacter baumannii, 52
# Experimental: as §1, §2, §3, §4
row,Compound,MIC90 [µg/mL]
1,CC(C)(O/N=C(\C(=O)N[C@@H]1C(=O)N2C(C(=O)[O-])=C(C[n+]3cnc(NCCCCN)c(NCCCCN)c3)CSC12)c1csc(N)n1)C(=O)O (some centres unmarked) [Compound 41],32
2,CC(C)(O/N=C(\C(=O)N[C@@H]1C(=O)N2C(C(=O)[O-])=C(/C=C/C[n+]3cnc(N)c(NC(=O)CCN)c3N)CSC12)c1csc(N)n1)C(=O)O (some centres unmarked) [Compound 66],> 128

# Tested on: A. baumannii 46
# Assay: as above
# Assay type: cell-based
# Conditions: Acinetobacter baumannii, 46, A. baumannii 46
# Experimental: as §1, §2, §3, §4
row,Compound,MIC90 [µg/mL]
1,CC(C)(O/N=C(\C(=O)N[C@@H]1C(=O)N2C(C(=O)[O-])=C(C[n+]3cnc(NCCCCN)c(NCCCCN)c3)CSC12)c1csc(N)n1)C(=O)O (some centres unmarked) [Compound 41],32
2,CC(C)(O/N=C(\C(=O)N[C@@H]1C(=O)N2C(C(=O)[O-])=C(/C=C/C[n+]3cnc(N)c(NC(=O)CCN)c3N)CSC12)c1csc(N)n1)C(=O)O (some centres unmarked) [Compound 66],16

# Tested on: M. catarrhalis 2524
# Assay: as above
# Assay type: cell-based
# Conditions: Moraxella catarrhalis, 2524
# Experimental: as §1, §2, §3, §4
row,Compound,MIC90 [µg/mL]
1,CC(C)(O/N=C(\C(=O)N[C@@H]1C(=O)N2C(C(=O)[O-])=C(C[n+]3cnc(NCCCCN)c(NCCCCN)c3)CSC12)c1csc(N)n1)C(=O)O (some centres unmarked) [Compound 41],0.125
2,CC(C)(O/N=C(\C(=O)N[C@@H]1C(=O)N2C(C(=O)[O-])=C(/C=C/C[n+]3cnc(N)c(NC(=O)CCN)c3N)CSC12)c1csc(N)n1)C(=O)O (some centres unmarked) [Compound 66],< 0.0625

# Tested on: P. aeruginosa 1912E
# Assay: as above
# Assay type: cell-based
# Conditions: Pseudomonas aeruginosa, 1912E
# Experimental: as §1, §2, §3, §4
row,Compound,MIC90 [µg/mL]
1,CC(C)(O/N=C(\C(=O)N[C@@H]1C(=O)N2C(C(=O)[O-])=C(C[n+]3cnc(NCCCCN)c(NCCCCN)c3)CSC12)c1csc(N)n1)C(=O)O (some centres unmarked) [Compound 41],4
2,CC(C)(O/N=C(\C(=O)N[C@@H]1C(=O)N2C(C(=O)[O-])=C(/C=C/C[n+]3cnc(N)c(NC(=O)CCN)c3N)CSC12)c1csc(N)n1)C(=O)O (some centres unmarked) [Compound 66],4

# Tested on: K. pneumoniae β13
# Assay: as above
# Assay type: cell-based
# Conditions: Klebsiella pneumoniae
# Experimental: as §1, §2, §3, §4
row,Compound,MIC90 [µg/mL]
1,CC(C)(O/N=C(\C(=O)N[C@@H]1C(=O)N2C(C(=O)[O-])=C(C[n+]3cnc(NCCCCN)c(NCCCCN)c3)CSC12)c1csc(N)n1)C(=O)O (some centres unmarked) [Compound 41],2
2,CC(C)(O/N=C(\C(=O)N[C@@H]1C(=O)N2C(C(=O)[O-])=C(/C=C/C[n+]3cnc(N)c(NC(=O)CCN)c3N)CSC12)c1csc(N)n1)C(=O)O (some centres unmarked) [Compound 66],0.5

# Tested on: K. pneumoniae β10
# Assay: as above
# Assay type: cell-based
# Conditions: Klebsiella pneumoniae
# Experimental: as §1, §2, §3, §4
row,Compound,MIC90 [µg/mL]
1,CC(C)(O/N=C(\C(=O)N[C@@H]1C(=O)N2C(C(=O)[O-])=C(C[n+]3cnc(NCCCCN)c(NCCCCN)c3)CSC12)c1csc(N)n1)C(=O)O (some centres unmarked) [Compound 41],2
2,CC(C)(O/N=C(\C(=O)N[C@@H]1C(=O)N2C(C(=O)[O-])=C(/C=C/C[n+]3cnc(N)c(NC(=O)CCN)c3N)CSC12)c1csc(N)n1)C(=O)O (some centres unmarked) [Compound 66],0.5

# Tested on: E. coli β4
# Assay: as above
# Assay type: cell-based
# Conditions: Escherichia coli
# Experimental: as §1, §2, §3, §4
row,Compound,MIC90 [µg/mL]
1,CC(C)(O/N=C(\C(=O)N[C@@H]1C(=O)N2C(C(=O)[O-])=C(C[n+]3cnc(NCCCCN)c(NCCCCN)c3)CSC12)c1csc(N)n1)C(=O)O (some centres unmarked) [Compound 41],1
2,CC(C)(O/N=C(\C(=O)N[C@@H]1C(=O)N2C(C(=O)[O-])=C(/C=C/C[n+]3cnc(N)c(NC(=O)CCN)c3N)CSC12)c1csc(N)n1)C(=O)O (some centres unmarked) [Compound 66],0.25

# Tested on: K. pneumoniae β14
# Assay: as above
# Assay type: cell-based
# Conditions: Klebsiella pneumoniae
# Experimental: as §1, §2, §3, §4
row,Compound,MIC90 [µg/mL]
1,CC(C)(O/N=C(\C(=O)N[C@@H]1C(=O)N2C(C(=O)[O-])=C(C[n+]3cnc(NCCCCN)c(NCCCCN)c3)CSC12)c1csc(N)n1)C(=O)O (some centres unmarked) [Compound 41],2
2,CC(C)(O/N=C(\C(=O)N[C@@H]1C(=O)N2C(C(=O)[O-])=C(/C=C/C[n+]3cnc(N)c(NC(=O)CCN)c3N)CSC12)c1csc(N)n1)C(=O)O (some centres unmarked) [Compound 66],1

# Tested on: P. aeruginosa 6065Y
# Assay: as above
# Assay type: cell-based
# Conditions: Pseudomonas aeruginosa, 6065Y
# Experimental: as §1, §2, §3, §4
row,Compound,MIC90 [µg/mL]
1,CC(C)(O/N=C(\C(=O)N[C@@H]1C(=O)N2C(C(=O)[O-])=C(C[n+]3cnc(NCCCCN)c(NCCCCN)c3)CSC12)c1csc(N)n1)C(=O)O (some centres unmarked) [Compound 41],16
2,CC(C)(O/N=C(\C(=O)N[C@@H]1C(=O)N2C(C(=O)[O-])=C(/C=C/C[n+]3cnc(N)c(NC(=O)CCN)c3N)CSC12)c1csc(N)n1)C(=O)O (some centres unmarked) [Compound 66],16
